Patent publication US9115127B2 (AMGEN INC., priority 2010, dated 2015)
Where a name gives a salt, the structure may show the parent alone.

Molecular target: T1, wild-type human ALK (cytoplasmic domain, amino acids 1058-1620, N-terminal GST fusion) (Homo sapiens, UniProt Q9UM73)
T1 construct: The cytoplasmic domain (amino acids 1058-1620) of wild-type human ALK; GST (N); made in house; host or cells: SF9 insect cells
Test: ALK Inhibition in Enzyme Assay (Lance TR-FRET kinase assay)
Type: biochemical
Description: ALK Inhibition in Enzyme Assay
Kinase activity of the purified protein was assessed using a Lance® TR-FRET assay. […] The reaction was allowed to proceed for 90 minutes at room temperature and was then terminated with 20 mM EDTA in 50 mM Tris (pH 7.5), 100 mM NaCl, 0.05% BSA, and 0.1% Tween-20. Phosphorylation of the peptide substrate was detected using the Lance® detection reagents streptavidin-allophycocyanin (SA-APC) and Eu-W1024 anti-phosphotyrosine antibody (PT66) from Perkin Elmer Life Sciences (Waltham, Mass.). The plates were read on a RUBY star plate reader (BMG LABTECH, Cary, N.C.) with an excitation wavelength of 320 nm.

T1 sequence (Q9UM73 1058-1620): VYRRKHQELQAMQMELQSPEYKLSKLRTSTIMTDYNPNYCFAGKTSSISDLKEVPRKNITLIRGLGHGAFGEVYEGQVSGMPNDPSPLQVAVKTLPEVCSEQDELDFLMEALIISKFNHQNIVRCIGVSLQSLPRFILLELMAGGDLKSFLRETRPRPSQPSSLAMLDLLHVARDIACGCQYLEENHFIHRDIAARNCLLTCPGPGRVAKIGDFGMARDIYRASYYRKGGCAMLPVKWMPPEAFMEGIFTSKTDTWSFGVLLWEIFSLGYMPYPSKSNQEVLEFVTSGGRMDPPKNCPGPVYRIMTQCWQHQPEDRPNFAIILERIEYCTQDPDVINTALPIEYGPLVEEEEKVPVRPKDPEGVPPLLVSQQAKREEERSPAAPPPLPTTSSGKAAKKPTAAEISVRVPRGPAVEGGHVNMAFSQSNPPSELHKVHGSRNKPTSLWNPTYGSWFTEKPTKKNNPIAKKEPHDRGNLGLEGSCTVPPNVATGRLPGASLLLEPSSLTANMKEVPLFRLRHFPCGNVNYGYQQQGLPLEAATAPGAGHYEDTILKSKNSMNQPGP

IC50 | Compound
100 to 1000 nM | CC(C)NC[C@H]1CC[C@@H](n2/c(=N/C(=O)c3ccc(F)cc3)[nH]c3ccc(CN4CCCCC4)cc32)CC1 [Example 36, (E)-4-Fluoro-N-(1-(cis-4-((isopropylamino)methyl)cyclohexyl)-6-(piperidin-1-ylmethyl)-1H-benzo[d]imidazol-2(3H)-ylidene)benzamide]
< 50 nM | C=CCNS(=O)(=O)c1cc(C(=O)/N=c2\[nH]c3ccc(CN4CCCCC4)cc3n2[C@H]2CC[C@@H](C(N)=O)CC2)ccc1F [Example 38, (E)-3-(N-Allylsulfamoyl)-N-(1-(cis-4-carbamoylcyclohexyl)-6-(piperidin-1-ylmethyl)-1H-benzo[d]imidazol-2(3H)-ylidene)-4-fluorobenzamide]
50 to 100 nM | CC(C)CCNC(=O)[C@H]1CC[C@@H](n2/c(=N/C(=O)c3ccc(F)cc3)[nH]c3ccc(CN4CCCCC4)cc32)CC1 [Example 40, (E)-4-Fluoro-N-(1-(cis-4-(isopentylcarbamoyl)cyclohexyl)-6-(piperidin-1-ylmethyl)-1H-benzo[d]imidazol-2(3H)-ylidene)benzamide]
1000 to 5000 nM | O=C(/N=c1\[nH]c2ccc(CN3CCOCC3)cc2n1[C@H]1CC[C@@H](C(=O)O)CC1)c1ccc(F)cc1 [Example 42, cis-4-((E)-2-(4-Fluorobenzoylimino)-6-(morpholinomethyl)-2,3-dihydro-1H-benzo[d]imidazol-1-yl)cyclohexanecarboxylic acid]
< 50 nM | COC(=O)[C@H]1CC[C@@H](n2/c(=N/C(=O)c3ccc(F)cc3)[nH]c3cnc(OCCN4CCCCC4)cc32)CC1 [Example 44, cis-Methyl 4-((E)-2-(4-fluorobenzoylimino)-6-(2-(piperidin-1-yl)ethoxy)-2,3-dihydro-1H-imidazo[4,5-c]pyridin-1-yl)cyclohexanecarboxylate]
< 50 nM | CC(C)N(C)C(=O)[C@H]1CC[C@@H](n2/c(=N/C(=O)c3ccc(F)cc3)[nH]c3ccc(CN4CCCCC4)cc32)CC1 [Example 46, (E)-4-Fluoro-N-(1-(cis-4-(isopropyl(methyl)carbamoyl)cyclohexyl)-6-(piperidin-1-ylmethyl)-1H-benzo[d]imidazol-2(3H)-ylidene)benzamide]
50 to 100 nM | O=C(/N=c1\[nH]c2ccc(CN3CCCCC3)cc2n1[C@H]1CC[C@@H](C(=O)Nc2nccs2)CC1)c1ccc(F)cc1 [Example 49, (E)-4-Fluoro-N-(6-(piperidin-1-ylmethyl)-1-(cis-4-(thiazol-2-ylcarbamoyl)cyclohexyl)-1H-benzo[d]imidazol-2(3H)-ylidene)benzamide]
< 50 nM | CC(C)NC(=O)[C@H]1CC[C@@H](n2/c(=N/C(=O)c3ccc(F)cc3)[nH]c3ccc(CN4CCC[C@H]4C(=O)O)cc32)CC1 [Example 54, (S)-1-(((E)-2-(4-Fluorobenzoylimino)-3-(cis-4-(isopropylcarbamoyl)cyclohexyl)-2,3-dihydro-1H-benzo[d]imidazol-5-yl)methyl)pyrrolidine-2-carboxylic acid hydrochloride]
100 to 1000 nM | C[C@@H]1CN(C(=O)OC(C)(C)C)CCN1C(=O)[C@H]1CC[C@@H](n2/c(=N/C(=O)c3ccc(F)cc3)[nH]c3cnc(OCCN4CCCCC4)cc32)CC1 [Example 56, (R)-tert-Butyl 4-(cis-4-((E)-2-(4-fluorobenzoylimino)-6-(2-(piperidin-1-yl)ethoxy)-2,3-dihydro-1H-imidazo[4,5-c]pyridin-1-yl)cyclohexanecarbonyl)-3-methylpiperazine-1-carboxylate]
< 50 nM | C[C@@H]1CN(C(=O)OC(C)(C)C)CCN1C(=O)[C@H]1CC[C@@H](n2/c(=N/C(=O)c3ccc(C#N)cc3)[nH]c3cnc(OCCN4CCCCC4)cc32)CC1 [Example 57, (R)-tert-Butyl 4-(cis-4-((E)-2-(4-cyanobenzoylimino)-6-(2-(piperidin-1-yl)ethoxy)-2,3-dihydro-1H-imidazo[4,5-c]pyridin-1-yl)cyclohexanecarbonyl)-3-methylpiperazine-1-carboxylate]
< 50 nM | C[C@@H]1CNCCN1C(=O)[C@H]1CC[C@@H](n2/c(=N/C(=O)c3ccc(C#N)cc3)[nH]c3cnc(OCCN4CCCCC4)cc32)CC1 [Example 58, (E)-4-Cyano-N-(1-(cis-4-((R)-2-methylpiperazine-1-carbonyl)cyclohexyl)-6-(2-(piperidin-1-yl)ethoxy)-1H-imidazo[4,5-c]pyridin-2(3H)-ylidene)benzamide]
< 50 nM | C[C@@H]1CNCCN1C(=O)[C@H]1CC[C@@H](n2/c(=N/C(=O)c3ccc(F)cc3)[nH]c3cnc(OCCN4CCCCC4)cc32)CC1 [Example 59, (E)-4-Fluoro-N-(1-(cis-4-((R)-2-methylpiperazine-1-carbonyl)cyclohexyl)-6-(2-(piperidin-1-yl)ethoxy)-1H-imidazo[4,5-c]pyridin-2(3H)-ylidene)benzamide]
50 to 100 nM | CC(C)NC(=O)[C@]1(O)CC[C@H](n2/c(=N/C(=O)c3ccc(F)cc3)[nH]c3cnc(OCCN4CCCCC4)cc32)CC1 [Example 63, (E)-4-Fluoro-N-(1-(trans-4-hydroxy-4-(isopropylcarbamoyl)cyclohexyl)-6-(2-(piperidin-1-yl)ethoxy)-1H-imidazo[4,5-c]pyridin-2(3H)-ylidene)benzamide]
100 to 1000 nM | CC(C)(C)OC(=O)N1CCC(n2/c(=N/C(=O)c3ccccc3)[nH]c3cnc(OCCN4CCCCC4)cc32)CC1 [Example 64, (E)-tert-Butyl 4-(2-(benzoylimino)-6-(2-(piperidin-1-yl)ethoxy)-2,3-dihydro-1H-imidazo[4,5-c]pyridin-1-yl)piperidine-1-carboxylate]

The remaining lines, values behind:

Compound | IC50
O=C(/N=c1\[nH]c2ccc(CN3CCCCC3)cc2n1[C@H]1CC[C@@H](CO)CC1)c1ccc(F)cc1 [Example 37, (E)-4-Fluoro-N-(1-(cis-4-(hydroxymethyl)cyclohexyl)-6-(piperidin-1-ylmethyl)-1H-benzo[d]imidazol-2(3H)-ylidene)benzamide] | 100 to 1000 nM
O=C(/N=c1\[nH]c2ccc(CN3CCCCC3)cc2n1[C@H]1CC[C@@H](C(=O)NCC(F)(F)F)CC1)c1ccc(F)cc1 [Example 39, (E)-4-Fluoro-N-(6-(piperidin-1-ylmethyl)-1-(cis-4-(2,2,2-trifluoroethylcarbamoyl)cyclohexyl)-1H-benzo[d]imidazol-2(3H)-ylidene)benzamide] | < 50 nM
CC(C)NC(=O)[C@H]1CC[C@@H](n2/c(=N/C(=O)c3ccc(F)cc3)[nH]c3ccc(CN4CCOCC4)cc32)CC1 [Example 41, (E)-4-Fluoro-N-(1-(cis-4-(isopropylcarbamoyl)cyclohexyl)-6-(morpholinomethyl)-1H-benzo[d]imidazol-2(3H)-ylidene)benzamide] | < 50 nM
CC(C)NC(=O)[C@H]1CC[C@@H](n2/c(=N/C(=O)c3ccc(F)cc3)[nH]c3cnc(OCCN4CCCCC4)cc32)CC1 [Example 45, (E)-4-Fluoro-N-(1-(cis-4-(isopropylcarbamoyl)cyclohexyl)-6-(2-(piperidin-1-yl)ethoxy)-1H-imidazo[4,5-c]pyridin-2(3H)-ylidene)benzamide] | < 50 nM
O=C(/N=c1\[nH]c2ccc(CN3CCCCC3)cc2n1[C@H]1CC[C@@H](C(=O)N2CCNCC2)CC1)c1ccc(F)cc1 [Example 47, (E)-4-Fluoro-N-(1-(cis-4-(piperazine-1-carbonyl)cyclohexyl)-6-(piperidin-1-ylmethyl)-1H-benzo[d]imidazol-2(3H)-ylidene)benzamide] | < 50 nM
CC(C)NC(=O)[C@H]1CC[C@@H](n2/c(=N/C(=O)c3ccc(F)cc3)[nH]c3ccc(CN4CCC(CC(=O)O)CC4)cc32)CC1 [Example 48, 2-(1-(((E)-2-(4-Fluorobenzoylimino)-3-(cis-4-(isopropylcarbamoyl)cyclohexyl)-2,3-dihydro-1H-benzo[d]imidazol-5-yl)methyl)piperidin-4-yl)acetic acid] | < 50 nM
CC(C)NC(=O)[C@H]1CC[C@@H](n2/c(=N/C(=O)c3ccc(F)cc3)[nH]c3cnc(OCCN4CCOCC4)cc32)CC1 [Example 51, (E)-4-Fluoro-N-(1-(cis-4-(isopropylcarbamoyl)cyclohexyl)-6-(2-morpholinoethoxy)-1H-imidazo[4,5-c]pyridin-2(3H)-ylidene)benzamide] | < 50 nM
CC(C)NC(=O)[C@H]1CC[C@@H](n2/c(=N/C(=O)c3ccc(F)cc3)[nH]c3ccc(CN4CCC[C@@H]4C(=O)O)cc32)CC1 [Example 53, (R)-1-(((E)-2-(4-Fluorobenzoylimino)-3-(cis-4-(isopropylcarbamoyl)cyclohexyl)-2,3-dihydro-1H-benzo[d]imidazol-5-yl)methyl)pyrrolidine-2-carboxylic acid hydrochloride] | < 50 nM
C[C@H]1CN(C(=O)[C@H]2CC[C@@H](n3/c(=N/C(=O)c4ccc(F)cc4)[nH]c4cnc(OCCN5CCCCC5)cc43)CC2)CCN1C(=O)OC(C)(C)C [Example 60, (S)-tert-Butyl 4-(cis-4-((E)-2-(4-fluorobenzoylimino)-6-(2-(piperidin-1-yl)ethoxy)-2,3-dihydro-1H-imidazo[4,5-c]pyridin-1-yl)cyclohexanecarbonyl)-2-methylpiperazine-1-carboxylate] | 1000 to 5000 nM
C[C@H]1CN(C(=O)[C@H]2CC[C@@H](n3/c(=N/C(=O)c4ccc(F)cc4)[nH]c4cnc(OCCN5CCCCC5)cc43)CC2)CCN1 [Example 61, (E)-4-Fluoro-N-(1-(cis-4-((S)-3-methylpiperazine-1-carbonyl)cyclohexyl)-6-(2-(piperidin-1-yl)ethoxy)-1H-imidazo[4,5-c]pyridin-2(3H)-ylidene)benzamide] | < 50 nM
C[C@H]1CN(C(=O)[C@H]2CC[C@@H](n3/c(=N/C(=O)c4ccccc4)[nH]c4cnc(OCCN5CCCCC5)cc43)CC2)CCN1 [Example 62] | 50 to 100 nM
